Data reported in US20030229048A1, “Methods and compositions for inhibition of irritation by disaccharide and metal ions” (priority 2002, published 2003).

Tests used:
Format in all cases: cell-based, Human
IL-1α [1] = test: IL-1α release (ELISA) in keratinocyte cells stimulated with methyl salicylate; settings: for inhibition of MS induced IL-1α release: summary statement
Procedure: (§1) Reagents methyl salicylate, ethacrynic acid, trehalose A, B, and C were obtained from Sigma-Aldrich (St. Louis, Mo.). Trehaloses were dissolved in keratinocyte media. Methyl salicylate was diluted in keratinocyte media. Ethacrynic acid was dissolved in DMSO. Keratinocyte cells were grown to 100% confluency as per the instructions given by ATCC. Then the cells were trypsinized to dislodge cells and spun at 3000 rpm for 3 min. The supernatant was aspirated and the cells were re-suspended in fresh media at a density of 1.0×10^6 cells per mL. The cell suspension was the pipetted into a 96-well plate (200 ul of per well) and cells were incubated overnight at 37° C. The next day morning media was aspirated, and 100 uL of fresh medium containing methyl salicylate (2%) was added to all the wells except for the (−) control wells. No MS was included in the (−) control wells. Then 100 uL of medium containing the various test reagents were added to the wells so that the final concentrations were as indicated in FIGS. 2-7. The 96-well plate was then incubated. After incubation for four hours at 36° C., the supernatant from the wells was transferred to centrifuge tubes and centrifuged to remove the cell debris. Then the presence of IL-1α was determined using ELISA kit (R&D systems, Inc.) as per the manufacturer's specifications. The cells remaining in the wells were treated with pre-warmed media containing MTT solution and incubated for four hours. Then the formazan product (metabolic product of MTT) in the wells was solubilized and the absorbance was measured using a plate reader.
Human keratinocytes were stimulated with MS in the absence or the presence of trehalose compounds, to find an optimal concentration of trehalose at which IL- 1α production is reduced by half compared to the positive control.

IL-1α [2] = test: as above; settings: substance alone; earlier work of the applicant
Keratinocyte cells = test: MTT assay, cytotoxicity / cell viability of keratinocyte cells
Procedure: as §1, with “After incubation for four hours at 36° C., the supernatant from the wells was transferred to centrifuge tubes and centrifuged to remove the cell debris.” left out, “The cells remaining in the wells were treated with pre-warmed media containing MTT solution and incubated for four hours.” left out, “reader. […]” for “reader.”

SMILES: C=C(CC)C(=O)c1ccc(OCC(=O)O)c(Cl)c1Cl [Ethacrynic Acid, reference compound]
- inhibition of MS induced IL-1α release (IL-1α [1]; concentration not given): inhibited the IL-1α release by MS
- reduction in IL-1α levels compared to MS 1% (positive control) (IL-1α [1]; test substance at 0.16%, FIG. 2): over 50%

SMILES: COC(=O)c1ccccc1O [MS, Methyl Salicylate]
- release of primary cytokines, especially IL-1α, in epidermal keratinocytes (IL-1α [2]): stimulates release

SMILES: OC[C@H]1O[C@H](O[C@H]2O[C@H](CO)[C@@H](O)[C@H](O)[C@H]2O)[C@H](O)[C@@H](O)[C@@H]1O [Trehalose A, trehalose]
- effect on IL-1α levels, MS stimulated (IL-1α [1]; low concentrations of 0.1-2.5%): neither trehalose A nor B showed any effect
- inhibition of MS induced IL-1α release (IL-1α [1]; concentration not stated, listed as trehalose A): capable of inhibiting MS induced IL-1α release
- reduction in IL-1α levels compared to MS 1% (positive control) (IL-1α [1]; test substance at 2.5%, FIG. 2): no effect
- reduction in IL-1α levels compared to MS 1% (positive control) (IL-1α [1]; test substance at 5%, FIG. 2): much lower levels of reduction

SMILES: OC[C@H]1O[C@H](O[C@H]2O[C@H](CO)[C@@H](O)[C@H](O)[C@H]2O)[C@H](O)[C@@H](O)[C@@H]1O [Trehalose B, trehalose]
- effect on IL-1α levels in Keratinocyte cells stimulated by 1% Methyl Salicylate (IL-1α [1]; FIG. 5, lower concentrations): no effect
- effect on IL-1α levels in Keratinocyte cells stimulated by 1% Methyl Salicylate (IL-1α [1]; any concentrations that were tested, FIGS. 2 and 3): no effect
- effect on IL-1α levels compared to MS 1% (positive control) (IL-1α [1]; at any of 2.5%, 5%, 10%, FIG. 2): no effect
- inhibition of MS induced IL-1α release (IL-1α [1]; concentration not stated, listed as trehalose B): no effect

SMILES: OC[C@H]1O[C@H](O[C@H]2O[C@H](CO)[C@@H](O)[C@H](O)[C@H]2O)[C@H](O)[C@@H](O)[C@@H]1O [Trehalose C, trehalose]
- inhibition of MS induced IL-1α release (IL-1α [1]; concentration not stated, listed as trehalose C): no effect

SMILES: [O]=[Zn] [Zinc Oxide]
- MTT concentration levels in Keratinocyte cells (cell viability) (Keratinocyte cells; concentrations at which ZnO inhibited MS stimulated IL-1α release, FIG. 7): no effect
- state of the cells (Keratinocyte cells; high concentrations of zinc oxide, FIG. 4 experiment): the cells were not active
- effect on IL-1α levels in Keratinocyte cells stimulated by 1% Methyl Salicylate (IL-1α [1]; FIG. 5, lower concentrations): significant dose dependent decrease
- IL-1α levels in Keratinocyte cells stimulated with 1% Methyl Salicylate (IL-1α [1]; concentration levels 10%-1.25%, FIG. 4): large decrease
- MS stimulated IL-1α levels (IL-1α [1]; high concentrations, FIG. 4): dramatic reduction
- inhibition of MS induced IL-1α release (IL-1α [1]; concentration not given): able to block MS induced IL-1α production as effectively as trehalose A
- reduction in IL-1α concentrations induced by Methyl Salicylate (IL-1α [1]; test substance at 0.000125%, FIG. 5): greater than 50%
